Experimental data reported in ChEMBL document CHEMBL1201862, “PubChem BioAssay data set” (2004).
Active and inactive are the calls of the source.

Legend:
[1] = target: G-protein coupled receptor 183 (Homo sapiens, UniProt P32249); assay: SAR confirmation of small molecule antagonists of the EBI2 receptor via a luminescent beta-arrestin assa.; format: functional
[2] = P. falciparum Dd2 growth inhibitors, dose response, SYBR Green, cherry-picked samples (AID 1159567); format: functional, cell-based
[3] = toxicity to human hepatoma HepG2 cells – cell-based, cherry-picked samples, cytotoxicity control, dose response (AID 1159577); format: functional
Paired box protein Pax-8 = Paired box protein Pax-8 (Homo sapiens, UniProt Q06710); assay: PAX8 transcriptional activity inhibition in RMG-I – RMG-I cells, luciferase, cherry-pick, dose response (AID 687027); format: functional, cell-based;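 also: luciferase reporter driven by Pax8 target thyroperoxidase promoter measured by SteadyGlo luminescence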
Paired box protein Pax-8, sequence (Q06710 whole entry): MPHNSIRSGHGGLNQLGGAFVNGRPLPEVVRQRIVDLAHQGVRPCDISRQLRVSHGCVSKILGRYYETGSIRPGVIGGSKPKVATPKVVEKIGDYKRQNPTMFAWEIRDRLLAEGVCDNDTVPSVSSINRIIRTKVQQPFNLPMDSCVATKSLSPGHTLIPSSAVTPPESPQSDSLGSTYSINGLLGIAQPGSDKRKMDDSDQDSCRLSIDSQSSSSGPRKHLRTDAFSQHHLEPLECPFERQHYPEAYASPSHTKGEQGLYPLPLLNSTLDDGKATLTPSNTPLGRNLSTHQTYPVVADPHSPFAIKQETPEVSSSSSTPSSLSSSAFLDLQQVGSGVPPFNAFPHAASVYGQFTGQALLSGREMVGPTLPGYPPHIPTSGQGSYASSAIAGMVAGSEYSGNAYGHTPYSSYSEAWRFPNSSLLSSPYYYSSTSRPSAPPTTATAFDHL

[4] = toxicity toward immortalized ovarian surface epithelium – cell-based, plate reader, dry powder samples, cytotoxicity control for PAX8 inhibitor project, dose response (AID 743045); format: functional
[5] = A2780 cell killing – plate reader, dry powder samples, cytotoxicity control, dose response (AID 743046); format: functional, cell-based
[6] = reduced cellular PGC1a acetyl-lysine signal – cell-based, cherry-picked samples, dose response (AID 720514); format: functional;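 also: potency may reflect raised or lowered acetylation signal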
[7] = OVCAR-3 cell viability loss – plate reader, dry powder samples, PAX8 inhibitor project, dose response (AID 743044); format: functional, cell-based
[8] = IGROV1 cell killing – plate reader, dry powder samples, PAX8 inhibitor project, dose response (AID 743043); format: functional, cell-based; conditions: IGROV-1
[9] = OVCAR8 cell viability loss – plate reader, dry powder samples, PAX8 project, dose response (AID 743197); format: functional, cell-based; conditions: OVCAR-8

G-protein coupled receptor 183, sequence (P32249 whole entry): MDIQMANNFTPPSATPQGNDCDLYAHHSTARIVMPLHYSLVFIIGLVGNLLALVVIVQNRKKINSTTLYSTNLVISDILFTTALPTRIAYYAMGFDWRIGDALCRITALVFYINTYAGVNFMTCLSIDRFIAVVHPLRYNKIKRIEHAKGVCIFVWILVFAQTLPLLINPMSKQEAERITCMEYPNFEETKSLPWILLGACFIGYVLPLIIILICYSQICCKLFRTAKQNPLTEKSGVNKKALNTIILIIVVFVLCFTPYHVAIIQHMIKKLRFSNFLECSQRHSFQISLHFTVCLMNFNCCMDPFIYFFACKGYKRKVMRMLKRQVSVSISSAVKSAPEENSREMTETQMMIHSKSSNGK

**Q.** With `Cc1cc(C)cc(CN2CCN(C(=O)/C=C/c3ccc(Br)cc3)CC2)c1` as the molecule, how does the IC50 [1] read?
**A.** 0.0064 µM (active)

**Q.** Which AC50 [2] does the source give for `CO[C@@H]1CN(C)C(=O)c2ccc(NC(=O)Nc3cccc(Cl)c3)cc2OC[C@@H](C)NC[C@H]1C` here?
**A.** 5.07 µM (active)

**Q.** And the AC50 [3]?
**A.** 30.3 µM (active)

**Q.** Which results are given for `N#Cc1ccc(-c2ccc([C@@H]3[C@@H]4CN(S(=O)(=O)c5ccc(-c6ccccc6)cc5)C[C@H]3N4)cc2)cc1`?
**A.** AC50 (Paired box protein Pax-8): 41.9 µM (active); AC50 [4]: 23.3 µM (active); AC50 [5]: 17.8 µM (active); AC50 [6]: 1.55 µM (active); AC50 [7]: 28.8 µM (active); AC50 [8]: 34.9 µM (active); AC50 [9]: 17.8 µM (active)

**Q.** Which IC50 [1] does the source give for `O=C(c1ccc(Br)cc1)N1CCN(C(=O)c2ccccc2Cl)CC1` here?
**A.** > 1 µM (inactive)
